Reference: patent US20160108381A1, “DNA POLYMERASES AND MUTANTS THEREOF” (LIFE TECHNOLOGIES CORPORATION, priority 2001, published 2016)

Key:
[1] = target: T1, Caldicellulosiruptor sp. strain Rt69B.1 (RT69B) DNA polymerase, SEQ ID NO:19 (Caldicellulosiruptor saccharolyticus, UniProt Q6X9R7); assay: Steady-state kinetics, DNA- and RNA-dependent polymerase activity; assay type: biochemical; conditions: Table 40; dTTP; 72 °C
T1 sequence (Q6X9R7 with tags, fused parts or gaps): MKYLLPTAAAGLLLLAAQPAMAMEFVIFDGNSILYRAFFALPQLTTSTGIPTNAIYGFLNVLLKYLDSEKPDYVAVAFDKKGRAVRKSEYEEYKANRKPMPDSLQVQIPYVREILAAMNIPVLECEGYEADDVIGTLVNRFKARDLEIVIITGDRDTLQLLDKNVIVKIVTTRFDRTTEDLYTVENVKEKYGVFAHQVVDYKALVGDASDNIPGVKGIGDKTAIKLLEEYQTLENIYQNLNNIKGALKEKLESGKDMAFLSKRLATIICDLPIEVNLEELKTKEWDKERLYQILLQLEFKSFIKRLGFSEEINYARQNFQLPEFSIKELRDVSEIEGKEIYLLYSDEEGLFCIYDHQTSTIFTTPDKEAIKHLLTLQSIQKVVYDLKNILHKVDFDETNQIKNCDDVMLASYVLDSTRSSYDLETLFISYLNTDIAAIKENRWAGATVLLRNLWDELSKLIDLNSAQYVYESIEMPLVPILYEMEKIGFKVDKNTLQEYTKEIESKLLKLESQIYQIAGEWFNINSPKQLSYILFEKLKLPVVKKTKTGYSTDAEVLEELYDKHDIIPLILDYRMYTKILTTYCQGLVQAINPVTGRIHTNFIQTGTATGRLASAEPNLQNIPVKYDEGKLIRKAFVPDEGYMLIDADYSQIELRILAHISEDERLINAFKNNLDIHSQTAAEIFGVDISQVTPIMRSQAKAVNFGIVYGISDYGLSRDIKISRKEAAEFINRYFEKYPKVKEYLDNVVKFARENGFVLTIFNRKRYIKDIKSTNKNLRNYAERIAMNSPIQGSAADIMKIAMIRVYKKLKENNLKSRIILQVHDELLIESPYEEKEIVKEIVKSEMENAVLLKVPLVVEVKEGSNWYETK
Method: (§1) Subcloning of genes for Tok13B, Tok7B, and Rt69B. Subcloning of the genes for Tok13B, Tok7B, and Rt69B DNA polymerase was carried out to remove the pelB leader sequence derived from pET26B. This reduced proteolytic degradation of the DNA polymerases from these genes observed in E. coli when the pelB leader was present. Each DNA polymerase gene was removed from pET26B by restriction digestion of the plasmid DNA with NcoI, which cut at the 5′ end of the gene, and BamHI, which cut downstream of the translation stop codon at the 3′ end of the gene. The NcoI-BamHI fragment was ligated into the NcoI and BamHI sites of expression vector pET14B (Novagen Inc., Madison, Wis.). The recombinant plasmids were transformed into the E. coli expression host BL21-AI (Invitrogen Corporation, Carlsbad, Calif.).
(§2) Purification of CA2, B.EA1, Rt41A, Dth, Tok13B, Tok7B, and Rt69B DNA polymerase. E. coli cells (BL21SI, Invitrogen Corporation, Carlsbad, Calif.) bearing the plasmid pET26B with the gene for CA2, B.EA1, Rt41A, or Dth DNA polymerase were grown in 2.8-1 Fembach flasks in LB broth containing no salt and 50 μg/ml kanamycin at 37° C. After the culture reached an A590 of 1.2, expression of DNA polymerase was induced with 0.3 M NaCl for 3 hr. Cells were harvested by centrifugation and stored at −70° C. […]

[2] = target: T2, Caldicellulosiruptor sp. strain Tok13B.1 (Tok13B) DNA polymerase, SEQ ID NO:17 (Caldicellulosiruptor saccharolyticus, UniProt Q6X9R9); assay: as above; assay type: biochemical; conditions: Table 40; dTTP; 72 °C
T2 sequence (Q6X9R9 with tags, fused parts or gaps): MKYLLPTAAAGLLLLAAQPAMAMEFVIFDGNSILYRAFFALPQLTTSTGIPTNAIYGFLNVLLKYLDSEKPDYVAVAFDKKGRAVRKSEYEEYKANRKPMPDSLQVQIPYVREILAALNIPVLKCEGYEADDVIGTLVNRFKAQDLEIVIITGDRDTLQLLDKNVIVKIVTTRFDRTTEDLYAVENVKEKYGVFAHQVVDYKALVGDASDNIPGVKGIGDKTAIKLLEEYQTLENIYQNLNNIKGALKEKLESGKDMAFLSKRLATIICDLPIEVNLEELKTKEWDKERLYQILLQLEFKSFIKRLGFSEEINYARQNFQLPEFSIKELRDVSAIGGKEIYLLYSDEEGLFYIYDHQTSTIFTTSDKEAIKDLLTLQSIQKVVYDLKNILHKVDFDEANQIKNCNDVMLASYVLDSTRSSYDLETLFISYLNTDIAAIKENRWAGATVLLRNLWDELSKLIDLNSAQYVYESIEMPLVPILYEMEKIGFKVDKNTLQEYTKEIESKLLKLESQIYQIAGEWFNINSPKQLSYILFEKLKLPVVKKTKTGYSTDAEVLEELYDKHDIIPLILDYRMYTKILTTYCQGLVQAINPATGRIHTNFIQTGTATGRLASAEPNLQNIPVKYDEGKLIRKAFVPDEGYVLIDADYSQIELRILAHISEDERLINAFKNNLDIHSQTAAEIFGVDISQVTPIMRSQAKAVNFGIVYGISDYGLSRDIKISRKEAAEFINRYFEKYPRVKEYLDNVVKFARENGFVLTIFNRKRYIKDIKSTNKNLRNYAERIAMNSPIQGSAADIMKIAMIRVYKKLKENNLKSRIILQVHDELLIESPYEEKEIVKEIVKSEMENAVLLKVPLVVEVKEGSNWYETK
Method: as §1, §2

SMILES: Cc1cn([C@H]2C[C@H](O)[C@@H](COP(=O)(O)OP(=O)(O)OP(=O)(O)O)O2)c(=O)[nH]c1=O [dTTP]
- kCAT Ratio (RNA/DNA) [1]: 0.03
- kCAT Ratio (RNA/DNA) [2]: 0.03
